Data reported in patent US20220033355A1, “CRYSTAL FORM A OF 2-(2, 5-DIOXOPYRROLIDIN-1YL) ETHYL METHYL FUMARATE, PREPARATION METHOD THEREFOR AND USE THEREOF” (SHENZHEN RENTAI PHARMATECH LTD., priority 2019, published 2022).
Structures can show the parent of a compound that is named as a salt.

Columns and labels:
Format in all cases: physicochemical
[1] = High-temperature stability of the crystal form (XRPD comparison); details: 60° C.
Description: (§1) Method: Cu target Ka, voltage: 40 KV, current: 40 mA, test angle: 3-45°, scanning step: 0.02, exposure time: 0.2S, slit width of light pipe: 2 mm, Dtex detector.
(2) High-temperature stability: the test sample is placed at a temperature of 60° C. for 5 days and 10 days, respectively, to test the stability of the crystal form.
(2) High-temperature stability: by referring to the same method of high-temperature stability test for crystal A, the test sample is placed at a temperature of 60° C. for 5 days to test the stability of the crystal form, which is compared with XRPD pattern of the crystal form I on day 0.

[2] = Light stability of the crystal form (XRPD comparison); details: 25° C., 4500 Lux
Description: as §1
(1) Light stability: the test sample is placed in an environment having a temperature of 25° C. and a light condition of 4500 Lux for 5 days and 10 days, respectively, to test the stability of the crystal form.
(1) Light stability: by referring to the same method of light stability test for crystal A, the test sample is placed in an environment having a temperature of 25° C. and a light condition of 4500 Lux for 5 days to test the stability of the crystal form, which is compared with XRPD pattern of the crystal form I on day 0.

[3] = High-humidity stability 2 of the crystal form (XRPD comparison); details: 75% RH, 40° C.
Description: as §1
(4) High-humidity stability 2: the test sample is placed in an environment having a humidity of 75% RH and a temperature of 40° C. for 5 days and 10 days, respectively, to test the stability of the crystal form.
(§2) (4) High-humidity stability 2: by referring to the same method of high-humidity stability test 2 for crystal A, the test sample is placed in an environment having a humidity of 75% RH and a temperature of 40° C. for 5 days to test the stability of the crystal form, which are compared with XRPD pattern of the crystal form I on day 0.

[4] = High-humidity stability 1 of the crystal form (XRPD comparison); details: 92.5% RH, 25° C.
Description: as §1
(3) High-humidity stability 1: the test sample is placed in an environment having a humidity of 92.5% RH and a temperature of 25° C. for 5 days and 10 days, respectively, to test the stability of the crystal form.
as §2, with “(3)” for “(4)”, “1:” for “2:”, “1” for “2”, “92.5%” for “75%”, “25°” for “40°”

[5] = Dynamic vapor sorption (DVS) hygroscopicity study; details: 25° C., RH stepped up from RH 0 to RH 90% at RH 10% per step, 10 min per step, when RH 90% is completed
Description: Model: DVS intrinsic (SMS, British); Method: 25° C., relative humidity is stepped up at a rate of 10%, the judgment standard is change in moisture content is <0.02% over a 10-minute period. Dynamic vapor sorption (DVS) experiment are performed for the crystal form I of Example 1 and the crystal form A prepared in Example 2 to obtain DVS curves under the following conditions: the temperature is 25° C., the relative humidity (RH) is stepped up from RH 0 to RH 90% at a rate of RH 10% per step, with 10 min for each step to reach equilibrium.

[6] = 5 days, XRPD compared with day 0

| SMILES | high-temperature stability of the crystal form ([1]; 5 days and 10 days, XRPD) | light stability of the crystal form ([2]; 5 days and 10 days, XRPD) | high-humidity stability 2 of the crystal form ([3]; 5 days and 10 days, XRPD) | high-humidity stability 1 of the crystal form ([4]; 5 days and 10 days, XRPD) | high-temperature stability of the crystal form [1, 6] | light stability of the crystal form [2, 6] | high-humidity stability 2 of the crystal form [3, 6] | high-humidity stability 1 of the crystal form [4, 6] | weight increase due to moisture absorption [5] [%] |
| --- | --- | --- | --- | --- | --- | --- | --- | --- | --- |
| COC(=O)/C=C/C(=O)OCCN1C(=O)CCC1=O [crystal form A, 2-(2,5-dioxopyrrolidin-1yl)ethyl methyl fumarate] | good high-temperature stability | good light stability | good high-humidity stability | good high-humidity stability |  |  |  |  |  |
| COC(=O)/C=C/C(=O)OCCN1C(=O)CCC1=O [crystal form I, 2-(2,5-dioxopyrrolidin-1yl)ethyl methyl fumarate] |  |  |  |  | unstable under high temperatures and easily transforms into crystal form A | unstable under lights and easily transforms into crystal form A | unstable under high humidity and easily transforms into crystal form A | unstable under high humidity and easily transforms into crystal form A | 0.642 |
